Test results: US12617813B2, “Glycosylated histone deacetylase inhibitors and methods of making and using the same” (Georgia Tech Research Corporation, priority 2020, dated 2026)

Experiments:
HDAC8 = biological target: T1, HDAC8 (Homo sapiens, UniProt Q9BY41); experiment: HDAC inhibition, HDAC8; assay type: biochemical
T1 sequence (Q9BY41 1-377): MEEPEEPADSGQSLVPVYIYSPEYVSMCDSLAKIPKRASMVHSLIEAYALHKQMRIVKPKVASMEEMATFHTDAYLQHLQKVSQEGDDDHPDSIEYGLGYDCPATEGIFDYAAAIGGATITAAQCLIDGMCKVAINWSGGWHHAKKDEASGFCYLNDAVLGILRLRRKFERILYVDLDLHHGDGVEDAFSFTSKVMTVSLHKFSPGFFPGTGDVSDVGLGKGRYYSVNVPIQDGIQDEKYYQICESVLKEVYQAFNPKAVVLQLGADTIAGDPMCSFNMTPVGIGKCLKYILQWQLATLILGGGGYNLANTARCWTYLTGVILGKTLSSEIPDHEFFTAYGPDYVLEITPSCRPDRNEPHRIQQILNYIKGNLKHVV

HDAC1 = HDAC1 (Homo sapiens, UniProt Q13547); experiment: HDAC inhibition, HDAC1; assay type: biochemical
HDAC6 = biological target: T2, HDAC6 (Homo sapiens, UniProt Q9UBN7); experiment: HDAC inhibition, HDAC6; assay type: biochemical
T2 sequence (Q9UBN7 1-1215): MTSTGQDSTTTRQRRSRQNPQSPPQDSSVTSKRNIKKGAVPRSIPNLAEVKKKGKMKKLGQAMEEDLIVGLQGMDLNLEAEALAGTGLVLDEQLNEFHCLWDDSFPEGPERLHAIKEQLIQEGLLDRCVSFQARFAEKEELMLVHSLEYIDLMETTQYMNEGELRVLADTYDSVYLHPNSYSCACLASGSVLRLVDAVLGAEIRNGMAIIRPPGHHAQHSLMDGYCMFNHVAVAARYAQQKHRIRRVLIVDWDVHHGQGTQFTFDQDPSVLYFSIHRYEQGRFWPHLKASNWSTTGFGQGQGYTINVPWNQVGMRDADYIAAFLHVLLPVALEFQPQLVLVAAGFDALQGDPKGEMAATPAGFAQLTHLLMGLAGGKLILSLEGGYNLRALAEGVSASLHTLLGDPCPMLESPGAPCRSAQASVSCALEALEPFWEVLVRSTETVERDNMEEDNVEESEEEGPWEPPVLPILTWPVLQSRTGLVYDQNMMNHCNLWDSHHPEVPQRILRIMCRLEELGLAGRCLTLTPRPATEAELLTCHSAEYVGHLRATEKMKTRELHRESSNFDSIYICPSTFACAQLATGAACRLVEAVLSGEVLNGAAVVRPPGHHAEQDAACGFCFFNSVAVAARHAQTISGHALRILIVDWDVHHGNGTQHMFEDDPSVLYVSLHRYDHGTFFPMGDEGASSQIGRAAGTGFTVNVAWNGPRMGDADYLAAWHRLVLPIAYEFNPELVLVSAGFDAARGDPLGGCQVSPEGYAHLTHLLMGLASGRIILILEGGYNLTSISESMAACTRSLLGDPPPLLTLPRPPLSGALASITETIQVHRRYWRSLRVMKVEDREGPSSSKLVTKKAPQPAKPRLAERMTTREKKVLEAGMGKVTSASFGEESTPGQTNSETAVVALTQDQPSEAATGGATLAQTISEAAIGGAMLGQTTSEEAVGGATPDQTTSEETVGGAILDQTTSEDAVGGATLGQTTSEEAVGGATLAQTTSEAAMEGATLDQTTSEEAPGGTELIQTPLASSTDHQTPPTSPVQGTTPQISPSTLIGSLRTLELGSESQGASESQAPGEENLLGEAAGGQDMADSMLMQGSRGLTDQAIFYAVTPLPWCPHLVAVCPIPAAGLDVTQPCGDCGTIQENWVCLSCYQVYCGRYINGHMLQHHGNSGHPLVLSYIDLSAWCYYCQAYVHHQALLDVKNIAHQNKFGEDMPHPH

HDAC2 = HDAC2 (Homo sapiens, UniProt Q92769); experiment: HDAC inhibition, HDAC2; assay type: biochemical
VERO = experiment: Cell growth inhibition, VERO; assay type: cell-based; conditions: Chlorocebus sabaeus, NI = No Inhibition at 100 uM
A549 = experiment: Cell growth inhibition, A549; assay type: cell-based; conditions: Homo sapiens, NI = No Inhibition at 100 uM
Hep-G2 = experiment: Cell growth inhibition, Hep-G2; assay type: cell-based; conditions: Homo sapiens, HepG2, NI = No Inhibition at 100 uM

HDAC2, sequence (Q92769 whole entry): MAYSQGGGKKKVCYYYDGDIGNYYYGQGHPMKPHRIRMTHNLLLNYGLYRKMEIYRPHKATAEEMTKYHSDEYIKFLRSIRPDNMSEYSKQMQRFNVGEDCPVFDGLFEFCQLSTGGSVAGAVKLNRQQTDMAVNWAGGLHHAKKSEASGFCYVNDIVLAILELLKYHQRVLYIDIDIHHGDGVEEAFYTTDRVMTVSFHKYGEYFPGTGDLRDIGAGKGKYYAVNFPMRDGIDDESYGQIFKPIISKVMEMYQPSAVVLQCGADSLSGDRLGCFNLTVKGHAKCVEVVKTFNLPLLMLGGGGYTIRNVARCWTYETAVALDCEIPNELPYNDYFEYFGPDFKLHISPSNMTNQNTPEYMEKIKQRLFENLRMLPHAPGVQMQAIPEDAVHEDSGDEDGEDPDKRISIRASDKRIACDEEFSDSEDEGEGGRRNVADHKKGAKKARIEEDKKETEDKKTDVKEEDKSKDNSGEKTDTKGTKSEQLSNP
HDAC1, sequence (Q13547 whole entry): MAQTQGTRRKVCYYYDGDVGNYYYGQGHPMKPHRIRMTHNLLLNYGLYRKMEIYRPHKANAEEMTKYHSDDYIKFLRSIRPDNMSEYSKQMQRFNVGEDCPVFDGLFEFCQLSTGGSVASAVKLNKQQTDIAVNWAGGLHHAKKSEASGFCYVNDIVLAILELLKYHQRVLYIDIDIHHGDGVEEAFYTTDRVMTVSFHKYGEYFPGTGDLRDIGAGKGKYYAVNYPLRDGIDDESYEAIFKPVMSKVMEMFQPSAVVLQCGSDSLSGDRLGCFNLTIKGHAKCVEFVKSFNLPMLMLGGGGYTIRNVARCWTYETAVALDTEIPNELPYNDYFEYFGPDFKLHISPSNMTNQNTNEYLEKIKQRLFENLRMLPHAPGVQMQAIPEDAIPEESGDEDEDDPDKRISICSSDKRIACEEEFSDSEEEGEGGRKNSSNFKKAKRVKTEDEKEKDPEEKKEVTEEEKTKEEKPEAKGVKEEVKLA

Row | Molecule | IC50 (HDAC8) [nM] | IC50 (HDAC1) [nM] | IC50 (HDAC6) [nM] | IC50 (HDAC2) [nM] | IC50 (VERO) [µM] | IC50 (A549) [µM] | IC50 (Hep-G2) [µM]
1 | (2R,3R,4S,5R,6R)-2-(acetoxymethyl)-6-(4-(1-(7-(((tert-butyldiphenylsilyl)oxy)-amino)-7-oxoheptyl)-1H-1,2,3-triazol-4-yl)phenoxy)tetrahydro-2H-pyran-3,4,5-triyl triacetate [STR-V-167] | 311 | 31.8 | 2.61 | 66.4 | – | – | –
2 | O=C(CCCCCn1cc(-c2ccc(O[C@H]3O[C@H](CO)[C@@H](O)[C@H](O)[C@@H]3O)cc2)nn1)NO [STR-II-29] | 3590 | 68.2 | 6.45 | 146 | – | – | –
3 | O=C(CCCCCCn1cc(-c2ccc3cc(O[C@H]4O[C@H](CO)[C@@H](O)[C@H](O)[C@@H]4O)ccc3c2)nn1)NO [STR-II-36] | 319 | 3.28 | 0.719 | 10.4 | – | – | –
4 | O=C(CCCCCn1cc(-c2ccc(O[C@H]3O[C@H](CO)[C@@H](O)[C@H](O)[C@@H]3O)cc2)nn1)NO [Compound 10] | – | – | – | – | > 100 | > 100 | 42.8 ± 0.5
5 | O=C(CCCCCCn1cc(-c2ccc3cc(O[C@H]4O[C@H](CO)[C@@H](O)[C@H](O)[C@@H]4O)ccc3c2)nn1)NO [Compound 7] | – | – | – | – | 33.6 ± 5.5 | 20.1 ± 1.1 | 7.5 ± 0.8
6 | O=C(CCCCCn1cc(-c2ccc3cc(O[C@H]4O[C@H](CO)[C@@H](O)[C@H](O)[C@@H]4O)ccc3c2)nn1)NO [Compound 9] | – | – | – | – | > 100 | 66.7 ± 16.1 | 13.5 ± 2.7
7 | CC(=O)OC[C@H]1OC(Oc2ccc3cc(-c4cn(CCCCCCC(=O)NO)nn4)ccc3c2)C(OC(C)=O)[C@@H](OC(C)=O)[C@@H]1OC(C)=O (stereo in doubt) [STR-V-177, (2R,3R,4S,5R,6S)-2-(acetoxymethyl)-6-((6-(1-(7-(hydroxyamino)-7-oxoheptyl)-1H-1,2,3-triazol-4-yl)naphthalen-2-yl)oxy)tetrahydro-2H-pyran-3,4,5-triyl triacetate] | 718 | 2.2 | 1.65 | 13.2 | – | – | –
8 | CC(=O)OC[C@H]1O[C@H](Oc2ccc3cc(-c4cn(CCCCCCC(=O)NO)nn4)ccc3c2)[C@@H](OC(C)=O)[C@@H](OC(C)=O)[C@@H]1OC(C)=O [Compound 6] | – | – | – | – | 19.2 ± 0.9 | 39.6 ± 0.6 | 7.4 ± 0.9
9 | Nc1ccc(F)cc1NC(=O)CCCCCCn1cc(-c2ccc(O[C@H]3O[C@H](CO)[C@@H](O)[C@H](O)[C@H]3O)cc2)nn1 [Compound 14] | – | – | – | – | > 100 | 59.9 | –
10 | CC(=O)OC[C@H]1O[C@H](Oc2ccc(-c3cn(CCCCCCC(=O)NO)nn3)cc2)[C@H](OC(C)=O)[C@@H](OC(C)=O)[C@@H]1OC(C)=O [Compound 1] | – | – | – | – | > 100 | > 100 | 10.1 ± 1.2
11 | CC(=O)OC[C@H]1OC(Oc2ccc(-c3cn(CCCCCCC(=O)NO)nn3)cc2)C(OC(C)=O)[C@@H](OC(C)=O)[C@@H]1OC(C)=O (stereo in doubt) [STR-V-176, (2R,3R,4S,5R,6S)-2-(acetoxymethyl)-6-(4-(1-(7-(hydroxyamino)-7-oxoheptyl)-1H-1,2,3-triazol-4-yl)phenoxy)tetrahydro-2H-pyran-3,4,5-triyl triacetate] | 271 | 1.43 | 1.05 | 4.2 | – | – | –
12 | (2S,3R,4S,6R)-4-(dimethylamino)-2-(4-(1-(7-(hydroxyamino)-7-oxoheptyl)-1H-1,2,3-triazol-4-yl)phenoxy)-6-methyltetrahydro-2H-pyran-3-yl acetate [STR-V-165] | 806 | 10.3 | 5.22 | 27.5 | – | – | –
13 | O=C(CCCCCCn1cc(-c2ccc3cc(O[C@H]4O[C@H](CO)[C@@H](O)[C@H](O)[C@H]4O)ccc3c2)nn1)NO [Compound 3] | – | – | – | – | 34.1 ± 3 | 77.2 ± 4.3 | 6.7 ± 1.6
14 | Nc1ccc(-c2cccs2)cc1NC(=O)CCCCCCn1cc(-c2ccc(O[C@H]3O[C@H](CO)[C@@H](O)[C@H](O)[C@H]3O)cc2)nn1 [Compound 16] | – | – | – | – | > 100 | 49.5 | > 100
15 | O=C(/C=C/c1ccc2cc(O[C@H]3O[C@H](CO)[C@@H](O)[C@H](O)[C@H]3O)ccc2c1)NO [Compound 8] | – | – | – | – | 82.1 | > 100 | 66.1
16 | O=C(CCCCCCn1cc(-c2ccc(O[C@H]3O[C@H](CO)[C@@H](O)[C@H](O)[C@H]3O)cc2)nn1)NO [Compound 2] | – | – | – | – | 76.4 ± 0.2 | 100 ± 0.1 | 10.4 ± 0.6
17 | O=C(/C=C/c1ccc(O[C@H]2O[C@H](CO)[C@@H](O)[C@H](O)[C@H]2O)cc1)NO [STR-V-121] | 1820 | 3840 | 75.4 | 6500 | – | – | –
18 | O=C(CCCCCCn1cc(-c2ccc(O)cc2)nn1)NO [STR-V-183, N-hydroxy-7-(4-(4-hydroxyphenyl)-11-1-1,2,3-triazol-1-yl)heptanamide, reference compound] | 1960 | 12.2 | 1.05 | 27.2 | – | – | –
19 | O=C(CCCCCn1cc(-c2ccc3cc(O[C@H]4O[C@H](CO)[C@@H](O)[C@H](O)[C@@H]4O)ccc3c2)nn1)NO [STR-II-35] | 1970 | 26.8 | 2.03 | 47.1 | – | – | –
20 | O=C(/C=C/c1ccc2cc(O[C@H]3O[C@H](CO)[C@@H](O)[C@H](O)[C@H]3O)ccc2c1)NO [STR-V-115] | 461 | 427 | 16.5 | 1030 | – | – | –
21 | Nc1cc(F)ccc1NC(=O)CCCCCCn1cc(-c2ccc(O[C@H]3O[C@H](CO)[C@@H](O)[C@H](O)[C@H]3O)cc2)nn1 [Compound 15] | – | – | – | – | > 100 | > 100 | ~100
22 | CC(=O)OC[C@H]1O[C@H](Oc2ccc(-c3cn(CCCCCCC(=O)NO)nn3)cc2)[C@@H](OC(C)=O)[C@@H](OC(C)=O)[C@@H]1OC(C)=O [Compound 4] | – | – | – | – | 77.4 ± 5.6 | 64.7 ± 7 | 8 ± 0.9
23 | C[C@H]1C[C@@H](N(C)C)[C@H](O)C(Oc2ccc(-c3cn(CCCCCCC(=O)NO)nn3)cc2)O1 (stereo partly drawn) [Compound 13] | – | – | – | – | 76.4 | 33.7 ± 1.8 | 9.6 ± 3.4
24 | O=C(CCCCCCn1cc(-c2ccc(O[C@H]3O[C@H](CO)[C@@H](O)[C@H](O)[C@@H]3O)cc2)nn1)NO [Compound 5] | – | – | – | – | 65.5 ± 8.3 | > 100 | 22.3 ± 2
25 | O=C(/C=C/c1ccc(O[C@H]2O[C@H](CO)[C@@H](O)[C@H](O)[C@H]2O)cc1)NO [Compound 12] | – | – | – | – | > 100 | > 100 | 45.3 ± 5.9
26 | O=C(/C=C/c1ccc2cc(O[C@H]3O[C@H](CO)[C@@H](O)[C@H](O)[C@@H]3O)ccc2c1)NO [Compound 11] | – | – | – | – | > 100 | > 100 | 78.5 ± 11.6
